Measured values taken from CN101993370A, “蓝萼甲素酸酯衍生物及其制备方法和应用” (SHANGHAI JINHAO PHARMACEUTICAL DEVELOPMENT Co Ltd, priority 2009, dated 2011).

Legend:
[1] = tested on: Lewis lung cancer [Lewis肺癌]; conditions: solid tumor; cited from earlier work
HCA solid type [HCA实体型] = conditions: cited from earlier work
[2] = in vivo and in vitro; cited from earlier work
[3] = in vivo; cited from earlier work
[4] = tested on: HCA ascites type [HCA腹水型]; conditions: mice bearing HCA ascites type; cited from earlier work
[5] = tested on: 5180 solid type [5180实体型]; conditions: cited from earlier work
[6] = cited from earlier work
[7] = cited from earlier work; remark: listed apart in the source
[8] = tested on: 5180 ascites type [5180腹水型]; conditions: mice bearing 5180 ascites type; cited from earlier work
[9] = cited from earlier work; remark: listed apart in the source
[10] = tested on: lung cancer A549 tumor cells [肺癌A549肿瘤细胞]; assay: MTT assay, A549 lung cancer tumor cells (Example 33); format: cell-based; conditions: 48 h, positive control

Question: Which “inhibition of tumor growth” value [1] does the source give for `C=C1C(=O)[C@@]23[C@H](O)C[C@@H]4C(C)(C)C(=O)CC[C@@]4(C)[C@@H]2CC[C@@H]1[C@H]3O` [蓝萼甲素] here?
Answer: 能抑制

Question: What about the “inhibition of tumor growth” value (HCA solid type [HCA实体型]) of the same compound?
Answer: 能抑制

Question: And the antitumor effect [2]?
Answer: 较强的抗肿瘤作用

Question: What about the antitumor spectrum [2] of the same compound?
Answer: 抗瘤谱较广

Question: And the “dose dependence of antitumor effect” value [2]?
Answer: 呈剂量依赖性

Question: What about the elimination [3] of the same compound?
Answer: 药物在体内消除很快

Question: What about the half-life [3] of the same compound?
Answer: 半衰期短

Question: And the life prolongation rate [4]?
Answer: 明显增加

Question: What about the “inhibition of tumor growth” value [5] of the same compound?
Answer: 能抑制

Question: What about the “requirement for efficacy in vivo” value [6] of the same compound?
Answer: 需大剂量长时间用药才能产生药效

Question: What about the “anticancer effect in vitro” value [7] of the same compound?
Answer: 明显的抗癌作用

Question: And the life prolongation rate [8]?
Answer: 明显增加

Question: What about the “solubility in nonpolar solvents” value ([9]; chloroform and other nonpolar solvents) of the same compound?
Answer: 易溶于氯仿等非极性溶剂

Question: And the solubility in water ([9]; water)?
Answer: 在水中不溶

Question: With `COc1cccc2c1C(=O)c1c(O)c3c(c(O)c1C2=O)C[C@@](O)(C(=O)CO)C[C@@H]3O[C@H]1C[C@H](N)[C@H](O)[C@H](C)O1` [阿霉素] as the compound, how does the “A value (490nm)” value ([10]; 0.01l/ml) read?
Answer: 0.452 ± 0.057

Question: What about the inhibition rate ([10]; 0.01l/ml) of the same compound?
Answer: 59.46%

Question: And the “A value (490nm)” value ([10]; 0.1μl/ml)?
Answer: 0.406 ± 0.075

Question: And the inhibition rate ([10]; 0.1μl/ml)?
Answer: 73.31%

Question: And the “A value (490nm)” value ([10]; 1μl/ml)?
Answer: 0.370 ± 0.087

Question: And the inhibition rate ([10]; 1μl/ml)?
Answer: 81.21%
